Test results published in PubChem BioAssay AID1918948 (Molecular Pharmacology Branch, DTP, NCI, 2023).
Where “and” joins values, the source holds several entries; their conditions need not be identical. Identical values can stand only once.

Tested on: K-562 leukemia growth, % test/control
Test: Anticancer human tumor K-562 cell line growth inhibition;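 further: spheroids exposed to compounds for 7 days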;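 on viability, T/C: 100% = DMSO vehicle wells and lower values mean fewer viable cells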
Conditions: spheroids with HUVEC and MSC; for viability, T/C: stronger effect = lower value
Procedure, shortened: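 Multicellular complex spheroids of tumor cells with human endothelial cells (HUVEC) and mesenchymal stem cells; the LSD1 inhibitor iadademstat was combined with standard-of-care or investigational agents. Top concentration at or near clinical Cmax, half-log dilutions; final DMSO ≤0.25%.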

[1] = curve of first compound, second compound 0.1 µM
[2] = curve of first compound, second compound 0.316 µM
[3] = curve of first compound, second compound 1 µM
[4] = curve of first compound, second compound 3.16 µM
[5] = curve of first compound, second compound 10 µM
[6] = second compound 0.1 µM, first compound 0.000316 µM
[7] = second compound 0.1 µM, first compound 0.001 µM
[8] = second compound 0.1 µM, first compound 0.00316 µM
[9] = second compound 0.1 µM, first compound 0.01 µM
[10] = second compound 0.1 µM, first compound 0.0316 µM
[11] = second compound 0.1 µM, first compound 0.1 µM
[12] = second compound 0.316 µM, first compound 0.000316 µM
[13] = second compound 0.316 µM, first compound 0.001 µM
[14] = second compound 0.316 µM, first compound 0.00316 µM
[15] = second compound 0.316 µM, first compound 0.01 µM
[16] = second compound 0.316 µM, first compound 0.0316 µM
[17] = second compound 0.316 µM, first compound 0.1 µM
[18] = second compound 1 µM, first compound 0.000316 µM
[19] = second compound 1 µM, first compound 0.001 µM
[20] = second compound 1 µM, first compound 0.00316 µM
[21] = second compound 1 µM, first compound 0.01 µM
[22] = second compound 1 µM, first compound 0.0316 µM
[23] = second compound 1 µM, first compound 0.1 µM
[24] = second compound 3.16 µM, first compound 0.000316 µM
[25] = second compound 3.16 µM, first compound 0.001 µM
[26] = second compound 3.16 µM, first compound 0.00316 µM
[27] = second compound 3.16 µM, first compound 0.01 µM
[28] = second compound 3.16 µM, first compound 0.0316 µM
[29] = second compound 3.16 µM, first compound 0.1 µM
[30] = second compound 10 µM, first compound 0.000316 µM
[31] = second compound 10 µM, first compound 0.001 µM
[32] = second compound 10 µM, first compound 0.00316 µM
[33] = second compound 10 µM, first compound 0.01 µM
[34] = second compound 10 µM, first compound 0.0316 µM
[35] = second compound 10 µM, first compound 0.1 µM
[36] = second compound 0.1 µM, first compound 0.316 µM
[37] = second compound 0.1 µM, first compound 1 µM
[38] = second compound 0.316 µM, first compound 0.316 µM
[39] = second compound 0.316 µM, first compound 1 µM
[40] = second compound 1 µM, first compound 0.316 µM
[41] = second compound 1 µM, first compound 1 µM
[42] = second compound 3.16 µM, first compound 0.316 µM
[43] = second compound 3.16 µM, first compound 1 µM
[44] = second compound 10 µM, first compound 0.316 µM
[45] = second compound 10 µM, first compound 1 µM

Row | SMILES | IC50 [1] [nM] | IC50 [2] [nM] | IC50 [3] [nM] | IC50 [4] [nM] | IC50 [5] [nM] | viability, T/C [8] [%] | viability, T/C [9] [%] | viability, T/C [10] [%] | viability, T/C [11] [%] | viability, T/C [14] [%] | viability, T/C [15] [%] | viability, T/C [16] [%] | viability, T/C [17] [%] | viability, T/C [20] [%] | viability, T/C [21] [%] | viability, T/C [22] [%] | viability, T/C [23] [%] | viability, T/C [26] [%] | viability, T/C [27] [%] | viability, T/C [28] [%] | further results
1 | CC(C)CC(NC(=O)CNC(=O)c1cc(Cl)ccc1Cl)B1OC(=O)CC(CC(=O)O)(C(=O)O)O1 (configuration not stated) + NC1CC1c1ccc(-c2cccc(O)c2)cc1 | 14.2 | 12.7 | 9.67 | 7.83 | 6.56 | 107 | 66.6 | 11.4 | 2.83 | 102 | 60 | 10.7 | 2.8 | 102 | 48.4 | 9.51 | 2.55 | 101 | 36.7 | 9.01 | viability, T/C [6]: 110%; viability, T/C [7]: 105%; viability, T/C [12]: 107%; viability, T/C [13]: 99.7%; viability, T/C [18]: 103%; viability, T/C [19]: 96.1%; viability, T/C [24]: 101%; viability, T/C [25]: 96.6%; viability, T/C [29]: 2.3%; viability, T/C [30]: 95.5%; viability, T/C [31]: 96.8%; viability, T/C [32]: 97.2%; viability, T/C [33]: 23.1%; viability, T/C [34]: 5.77%; viability, T/C [35]: 1.88%
2 | Nc1ncn(C2CC(O)C(CO)O2)c(=O)n1 (configuration not stated) + NC1CC1c1ccc(-c2cccc(O)c2)cc1 | > 1000 | > 1000 | 988 | 772 | 166 | 106 | 104 | 99.4 | 89.7 | 101 | 104 | 97.5 | 86.1 | 101 | 102 | 95.9 | 85 | 102 | 97.9 | 95.9 | viability, T/C [36]: 72.8%; viability, T/C [37]: 65.1%; viability, T/C [38]: 67.2%; viability, T/C [39]: 55.6%; viability, T/C [40]: 62.5%; viability, T/C [41]: 50%; viability, T/C [29]: 80.4%; viability, T/C [42]: 58.4%; viability, T/C [43]: 47.6%; viability, T/C [32]: 96.9%; viability, T/C [33]: 89.1%; viability, T/C [34]: 77.4%; viability, T/C [35]: 58.7%; viability, T/C [44]: 38.8%; viability, T/C [45]: 31.9%
3 | CCc1c2c(nc3ccc(O)cc13)-c1cc3c(c(=O)n1C2)COC(=O)[C@]3(O)CC | – | – | – | – | – | – | – | – | – | – | – | – | – | – | – | – | – | – | – | – | viability, T/C (compound 0.000949 µM): 15% and 13.4%; viability, T/C (compound 0.003 µM): 10.5% and 9.22%; viability, T/C (compound 0.00949 µM): 5.78% and 4.21%; viability, T/C (compound 0.03 µM): 2.47% and 1.25%; viability, T/C (compound 0.0949 µM): 0.78% and 0.75%; viability, T/C (compound 0.3 µM): 0.65% and 0.82%; IC50 (curve of compound): < 0.949 nM
4 | CC(C)CC(NC(=O)CNC(=O)c1cc(Cl)ccc1Cl)B1OC(=O)CC(CC(=O)O)(C(=O)O)O1 (configuration not stated) + NC1CCC(NC2CC2c2ccccc2)CC1 | 12.9 | 12.8 | 13.1 | 13.4 | 11.7 | 100 | 59.5 | 15.6 | 6.56 | 102 | 58.7 | 16.7 | 6.02 | 102 | 61.5 | 12.8 | 6.77 | 103 | 60.6 | 16.9 | viability, T/C [6]: 102%; viability, T/C [7]: 96.6%; viability, T/C [12]: 99.6%; viability, T/C [13]: 102%; viability, T/C [18]: 104%; viability, T/C [19]: 102%; viability, T/C [24]: 103%; viability, T/C [25]: 98.1%; viability, T/C [29]: 5.71%; viability, T/C [30]: 97.9%; viability, T/C [31]: 99.5%; viability, T/C [32]: 96.5%; viability, T/C [33]: 54.2%; viability, T/C [34]: 16.9%; viability, T/C [35]: 4.71%
5 | Nc1ncn(C2CC(O)C(CO)O2)c(=O)n1 (configuration not stated) + NC1CCC(NC2CC2c2ccccc2)CC1 | 695 | 770 | 640 | 396 | 69.5 | 102 | 98.2 | 89.2 | 71.4 | 104 | 100 | 90.3 | 71 | 103 | 100 | 89.4 | 72.4 | 102 | 99.5 | 88.1 | viability, T/C [36]: 54.7%; viability, T/C [37]: 47.8%; viability, T/C [38]: 56.4%; viability, T/C [39]: 48%; viability, T/C [40]: 56.3%; viability, T/C [41]: 46.1%; viability, T/C [29]: 68.4%; viability, T/C [42]: 50.8%; viability, T/C [43]: 45%; viability, T/C [32]: 89.3%; viability, T/C [33]: 84.5%; viability, T/C [34]: 64.2%; viability, T/C [35]: 45%; viability, T/C [44]: 25.6%; viability, T/C [45]: 24.9%
